Tests used:
[1] = biological target: α-glucosidase; test: in vitro α-glucosidase inhibitory assay (p-nitrophenyl-D-glucopyranoside, 405 nm); type: biochemical; settings: triplicates; standard acarbose; read-out: α-Glucosidase IC50 (µM ±SEM)
Description: 10 µl of the α-glucosidase enzyme, 20 µl of test samples (10-50 µg/ml) and 50 µl, of 0.1M phosphate buffer (pH=6.8), were incubated at 37°C for 15 min in a 96-well plate. 20 µl of p-nitrophenyl—D-glucopyranoside solution was further added as a substrate and again incubated for 20 min at 37 °C. Sodium carbonate (50 µl of 0.1M) was added to terminate the reaction. P-nitrophenol was liberated, during the reaction which was measured at 405nm using an ELISA microplate reader. […] All the experiments were carried out in triplicates. The percentage inhibition was calculated by the formula.
% Inhibition = [(Ac – As) /Ac] × 100 Ac-absorbance for control, As-absorbance for standard.

[2] = biological target: T1, α-amylase (Sus scrofa, UniProt P00690); test: in vitro α-amylase inhibitory assay (starch/DNS, absorbance 540 nm); type: biochemical; settings: triplicates; standard acarbose; read-out: α-Amylase IC50 (µM ±SEM)
T1 sequence (P00690 16-511): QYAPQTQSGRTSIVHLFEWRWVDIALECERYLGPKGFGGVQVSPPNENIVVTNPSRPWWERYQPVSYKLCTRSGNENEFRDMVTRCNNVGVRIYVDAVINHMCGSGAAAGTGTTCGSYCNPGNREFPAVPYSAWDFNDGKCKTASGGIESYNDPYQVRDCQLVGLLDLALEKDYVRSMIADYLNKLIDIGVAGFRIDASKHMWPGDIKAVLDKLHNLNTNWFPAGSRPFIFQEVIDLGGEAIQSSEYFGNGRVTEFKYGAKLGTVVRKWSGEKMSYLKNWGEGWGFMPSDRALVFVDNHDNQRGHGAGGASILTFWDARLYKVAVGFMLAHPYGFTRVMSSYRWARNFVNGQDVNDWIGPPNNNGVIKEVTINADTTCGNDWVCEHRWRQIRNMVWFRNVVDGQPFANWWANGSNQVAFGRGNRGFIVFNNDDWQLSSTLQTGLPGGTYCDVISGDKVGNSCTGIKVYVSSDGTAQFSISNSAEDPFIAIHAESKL
Description: 20µL of α -amylase solution (0.5 mg/ml) was added to phosphate buffer (pH 6.9, 0.02 M, 200 µL). 250 μL of test samples (10-50 µg/mL) was added, to all the above solutions and kept for incubation for 10 min.1% starch solution (200µL) was further added and again kept for incubation for 10 min at a temperature of 25°C. Termination of the reaction was affected by the addition of 400 μL of 3, 5-dinitrosalicylic acid (DNS) reagent. Lastly, it was incubated in water (at 70°C, 5 min). The absorbance was recorded using an ELISA microplate reader at 540 nm. […] All the reactions were carried out in triplicates. The reaction mixture, devoid of the test sample, served as control. The following formula was employed to calculate percentage inhibition..
% Inhibition = [(Ac – As) /Ac] × 100 Ac-Control absorbance, As-Standard absorbance

| Compound | IC50 [1] [µM] | IC50 [2] [µM] |
| --- | --- | --- |
| FC(F)(F)c1ccc(/C=N/c2nnc(-c3cccc4[nH]cnc34)s2)cc1 [Analog 1, (E)-N-(5-(1H-benzo[d]imidazol-4-yl)-1,3,4-thiadiazol-2-yl)-1-(4-(trifluoromethyl)phenyl)methanimine] | 2.8 ± 0.2 |  |
| Oc1cc(F)ccc1/C=N/c1nnc(-c2cccc3[nH]cnc23)s1 [Analog 2, (E)-2-(((5-(1H-benzo[d]imidazol-4-yl)-1,3,4-thiadiazol-2-yl)imino)methyl)-5-fluorophenol] | 2.1 ± 0.1 |  |
| O=[N+]([O-])c1cc(Br)ccc1/C=N/c1nnc(-c2cccc3[nH]cnc23)s1 [Analog 3, (E)-N-(5-(1H-benzo[d]imidazol-4-yl)-1,3,4-thiadiazol-2-yl)-1-(4-bromo-2-nitrophenyl)methanimine] | 24.6 ± 0.2 |  |
| O=[N+]([O-])c1ccccc1/C=N/c1nnc(-c2cccc3[nH]cnc23)s1 [Analog 4, (E)-N-(5-(1H-benzo[d]imidazol-4-yl)-1,3,4-thiadiazol-2-yl)-1-(2 nitrophenyl)methanimine] | 7.4 ± 0.3 |  |
| O=[N+]([O-])c1ccc(/C=N/c2nnc(-c3cccc4[nH]cnc34)s2)cc1 [Analog 5, (E)-N-(5-(1H-benzo[d]imidazol-4-yl)-1,3,4-thiadiazol-2-yl)-1-(4-nitrophenyl)methanimine] | 5.7 ± 0.2 |  |
| Cc1ccc(/C=N/c2nnc(-c3cccc4[nH]cnc34)s2)cc1 [Analog 6, (E)-N-(5-(1H-benzo[d]imidazol-4-yl)-1,3,4-thiadiazol-2-yl)-1-(p-tolyl)methanimine] | 15.3 ± 0.1 |  |
| Cc1ccccc1/C=N/c1nnc(-c2cccc3[nH]cnc23)s1 [Analog 7, (E)-N-(5-(1H-benzo[d]imidazol-4-yl)-1,3,4-thiadiazol-2-yl)-1-(o-tolyl)methanimine] | 19.9 ± 0.1 |  |
| Cc1cccc(/C=N/c2nnc(-c3cccc4[nH]cnc34)s2)c1 [Analog 8, (E)-N-(5-(1H-benzo[d]imidazol-4-yl)-1,3,4-thiadiazol-2-yl)-1-(m-tolyl)methanimine] | 21.6 ± 0.3 |  |
| Fc1ccc(/C=N/c2nnc(-c3cccc4[nH]cnc34)s2)cc1 [Analog 9, (E)-N-(5-(1H-benzo[d]imidazol-4-yl)-1,3,4-thiadiazol-2-yl)-1-(4-fluorophenyl)methanimine] | 3.9 ± 0.1 |  |
| COc1ccc(OC)c(/C=N/c2nnc(-c3cccc4[nH]cnc34)s2)c1 [Analog 10, (E)-N-(5-(1H-benzo[d]imidazol-4-yl)-1,3,4-thiadiazol-2-yl)-1-(2,5-dimethoxyphenyl)methanimine] | 14.5 ± 0.5 |  |
| COc1ccccc1/C=N/c1nnc(-c2cccc3[nH]cnc23)s1 [Analog 12, (E)-N-(5-(1H-benzo[d]imidazol-4-yl)-1,3,4-thiadiazol-2-yl)-1-(2-methoxyphenyl)methanimine] | 15.4 ± 0.3 |  |
| COc1cccc(/C=N/c2nnc(-c3cccc4[nH]cnc34)s2)c1 [Analog 13, (E)-N-(5-(1H-benzo[d]imidazol-4-yl)-1,3,4-thiadiazol-2-yl)-1-(3-methoxyphenyl)methanimine] | 17.2 ± 0.3 |  |
| O=[N+]([O-])c1cc(Cl)ccc1/C=N/c1nnc(-c2cccc3[nH]cnc23)s1 [Analog 14, (E)-N-(5-(1H-benzo[d]imidazol-4-yl)-1,3,4-thiadiazol-2-yl)-1-(4-chloro-2-nitrophenyl)methanimine] | 9.3 ± 0.4 |  |
| Clc1cccc(/C=N/c2nnc(-c3cccc4[nH]cnc34)s2)c1Cl [Analog 15, (E)-N-(5-(1H-benzo[d]imidazol-4-yl)-1,3,4-thiadiazol-2-yl)-1-(2,3-dichlorophenyl)methanimine] | 6.6 ± 0.1 |  |
| Brc1ccc(/C=N/c2nnc(-c3cccc4[nH]cnc34)s2)cc1 [Analog 16, (E)-N-(5-(1H-benzo[d]imidazol-4-yl)-1,3,4-thiadiazol-2-yl)-1-(4-bromophenyl)methanimine] | 26.1 ± 0.1 |  |
| (E)-N-(5-(1H-benzo[d]imidazol-4-yl)-1,3,4-thiadiazol-2-yl)-1-(3-fluorophenyl)methanimine [Analog 11] | 4.7 ± 0.1 | 3.18 ± 0.1 |
| (E)-N-(5-(1H-benzo[d]imidazol-4-yl)-1,3,4-thiadiazol-2-yl)-1-(4-bromophenyl)methanimine [Analog 17] | 2.3 ± 0.6 | 2.16 ± 0.5 |

Source: PMC10196468, “Synthesis, in vitro biological assessment, and molecular docking study of benzimidazole-based thiadiazole derivatives as dual inhibitors of α-amylase and α-glucosidase” (Frontiers in Chemistry, 2023)
